Measurements: patent publication US20230002334A1, “TRPM8 MODULATORS” (Givaudan SA, priority 2019, published 2023)

Biological target: T1, hTRPM8 (Homo sapiens, UniProt Q7Z2W7)
T1 construct: expressed in transfected cells
Assay: Assay on TRPM8 modulators: calcium imaging (Fluo-4, Flexstation) in HEK293 cell line stably expressing hTRPM8
Type: cell-based
Conditions: HEK293 cells stably expressing hTRPM8, calcium influx, sigmoidal dose-response fit; read-out: EC50
Protocol: A HEK293 cell line stably expressing hTRPM8 was generated according to Klein et al., (Chem. Senses 36: 649-658, 2011) and receptor activation was monitored by calcium imaging in a Flexstation. For Ca-imaging assays of TRPM8 channel activation, cells were seeded on day 0 at a density of 12000 cells per well in Dulbecco's modified Eagle medium (DMEM) containing 9% foetal bovine serum in black, clear bottom 96-well plates that had been coated with 0.001% polyethyleneimine (molecular weight=60 000, Acros Organics). On day 2, agonists were evaluated via calcium imaging using Fluo-4. Briefly, growth medium was discarded, and the cells were incubated in the dark for 1 h at 37° C. in 50 μL loading buffer consisting of 2.7 μM Fluo-4 AM (Invitrogen) and […] probenecid (Sigma-Aldrich) in DMEM (without serum). After incubation, the plates were washed five times with 100 μL of assay buffer (in mM: 130 NaCl, 5 KCl, 10 HEPES, 2 CaCl2, and 10 glucose, pH7.4.) and further incubated in the dark at room temperature for 30 min. The cells were then washed five times with 100 μL assay buffer and then calcium influx to serial dilutions of inventive compounds were measured in a Flexstation 3 (Molecular Devices). Receptor activation was initiated following addition of 20 μl of a 10-fold concentrated ligand stock solution, which is also prepared in assay buffer. Fluorescence was continuously monitored for 15 seconds prior to ligand addition and for 105 seconds after ligand addition, for a total of 120 seconds. Maximal receptor activation in relation to solvent control and relative to 31.6 μM menthol is determined. Data from serial dilutions were processed with a KNIME workflow to fit a sigmoidal dose-response curve and to extrapolate EC50 values.

T1 sequence (Q7Z2W7 whole entry): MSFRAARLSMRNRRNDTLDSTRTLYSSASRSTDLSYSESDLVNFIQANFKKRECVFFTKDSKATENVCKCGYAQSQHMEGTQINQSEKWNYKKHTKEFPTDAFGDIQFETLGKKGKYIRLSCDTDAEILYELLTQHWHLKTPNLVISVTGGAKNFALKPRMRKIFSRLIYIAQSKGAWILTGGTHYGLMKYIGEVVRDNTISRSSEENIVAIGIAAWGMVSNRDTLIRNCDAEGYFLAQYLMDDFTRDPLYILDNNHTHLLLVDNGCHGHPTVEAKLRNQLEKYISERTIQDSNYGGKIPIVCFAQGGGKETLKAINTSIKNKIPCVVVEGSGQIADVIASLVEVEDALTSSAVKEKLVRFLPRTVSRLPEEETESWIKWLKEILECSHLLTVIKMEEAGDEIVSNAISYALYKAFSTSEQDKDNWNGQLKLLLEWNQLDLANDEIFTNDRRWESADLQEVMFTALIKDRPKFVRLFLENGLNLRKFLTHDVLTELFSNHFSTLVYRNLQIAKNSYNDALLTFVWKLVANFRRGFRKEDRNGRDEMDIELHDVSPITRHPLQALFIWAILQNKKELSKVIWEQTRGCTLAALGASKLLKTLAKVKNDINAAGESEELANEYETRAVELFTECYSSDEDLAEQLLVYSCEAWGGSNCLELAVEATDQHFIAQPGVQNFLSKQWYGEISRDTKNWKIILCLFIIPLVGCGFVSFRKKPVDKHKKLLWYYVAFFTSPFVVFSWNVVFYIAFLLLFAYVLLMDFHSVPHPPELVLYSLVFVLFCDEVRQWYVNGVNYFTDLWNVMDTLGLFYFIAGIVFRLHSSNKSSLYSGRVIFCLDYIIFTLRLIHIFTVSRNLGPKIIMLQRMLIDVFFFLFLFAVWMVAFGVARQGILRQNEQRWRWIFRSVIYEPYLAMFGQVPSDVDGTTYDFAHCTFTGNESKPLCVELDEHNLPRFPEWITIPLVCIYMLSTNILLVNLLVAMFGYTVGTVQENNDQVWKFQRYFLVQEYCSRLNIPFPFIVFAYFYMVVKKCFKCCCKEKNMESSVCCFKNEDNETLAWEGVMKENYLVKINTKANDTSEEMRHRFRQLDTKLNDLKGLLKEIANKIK

Structure (SMILES)	EC50
C[C@H]1C[C@@](C)(c2cccc(F)c2)C[C@@H]2[C@@H]1N(C)OC2(C)C (racemic) [Compound 92, rac-(3aR,5R,7S,7aR)-5-(3-fluorophenyl)-1,3,3,5,7-pentamethyloctahydrobenzo[c]isoxazole]	50 to 300 nM
Cc1cc(C)cc([C@@]2(C)C[C@@H]3[C@@H]([C@@H](C)C2)N(C(C)C)OC3(C)C)c1 (racemic) [Compound 88, rac-(3aR,5R,7S,7aR)-5-(3,5-dimethylphenyl)-1-isopropyl-3,3,5,7-tetramethyloctahydrobenzo[c]isoxazole]	300 to 1000 nM
COc1ccc([C@@]2(C)C[C@@H]3[C@@H]([C@@H](C)C2)N(C(C)C)OC3(C)C)cc1 (racemic) [Compound 67, rac-(3aR,5R,7S,7aR)-1-isopropyl-5-(4-methoxyphenyl)-3,3,5,7-tetramethyloctahydrobenzo[c]isoxazole]	1000 to 35000 nM
COc1ccc(OC)c(C2(C)CC(C)C3C(C2)C(C)(C)ON3C)c1 (stereo not drawn) [Compound 17, 5-(2,5-dimethoxyphenyl)-1,3,3,5,7-pentamethyloctahydrobenzo[c]isoxazole]	50 to 300 nM
COc1cc(F)ccc1[C@@]1(C)C[C@@H]2[C@@H]([C@@H](C)C1)N(C)OC2(C)C (racemic) [Compound 99, rac-(3aR,5R,7S,7aR)-5-(4-fluoro-2-methoxyphenyl)-1,3,3,5,7-pentamethyloctahydrobenzo[c]isoxazole]	< 50 nM
Cc1ccc([C@@]2(C)C[C@@H]3[C@@H]([C@@H](C)C2)N(C)OC3(C)C)s1 (racemic) [Compound 41, rac-(3aR,5R,7S,7aR)-1,3,3,5,7-pentamethyl-5-(5-methylthiophen-2-yl)octahydrobenzo[c]isoxazole]	300 to 1000 nM
C[C@H]1C[C@@](C)(c2ccccc2F)C[C@@H]2[C@@H]1N(C)OC2(C)C (racemic) [Compound 81, rac-(3aR,5R,7S,7aR)-5-(2-fluorophenyl)-1,3,3,5,7-pentamethyloctahydrobenzo[c]isoxazole]	50 to 300 nM
CCN1OC(C)(C)[C@@H]2C[C@H](c3ccccc3OC)C[C@H](C)[C@H]21 (racemic) [Compound 57, rac-(3aR,5R,7S,7aR)-1-ethyl-5-(2-methoxyphenyl)-3,3,7-trimethyloctahydrobenzo[c]isoxazole]	< 50 nM
C[C@H]1C[C@@](C)(c2ccc3ccccc3c2)C[C@@H]2[C@@H]1N(C)OC2(C)C (racemic) [Compound 45, rac-(3aR,5R,7S,7aR)-1,3,3,5,7-pentamethyl-5-(naphthalen-2-yl)octahydrobenzo[c]isoxazole]	50 to 300 nM
Cc1ccc([C@@]2(C)C[C@@H]3[C@@H]([C@@H](C)C2)N(C)OC3(C)C)cc1 (racemic) [Compound 47, rac-(3aR,5R,7S,7aR)-1,3,3,5,7-pentamethyl-5-(p-tolyl)octahydrobenzo[c]isoxazole]	50 to 300 nM
C[C@H]1C[C@@](C)(c2ccoc2)C[C@@H]2[C@@H]1N(C)OC2(C)C (racemic) [Compound 110, rac-(3aR,5R,7S,7aR)-5-(furan-3-yl)-1,3,3,5,7-pentamethyloctahydrobenzo[c]isoxazole]	300 to 1000 nM
CC(C)=CC[C@H]1C[C@@H]2[C@@H]([C@@H](C)C1)N(C(C)C)OC2(C)C (racemic) [Compound 62, rac-(3aR,5R,7S,7aR)-1-isopropyl-3,3,7-trimethyl-5-(3-methylbut-2-en-1-yl)octahydrobenzo[c]isoxazole]	300 to 1000 nM
Cc1ccncc1C1(C)CC(C)C2C(C1)C(C)(C)ON2C (stereo not drawn) [Compound 2, 1,3,3,5,7-pentamethyl-5-(4-methylpyridin-3-yl)octahydrobenzo[c]isoxazole]	300 to 1000 nM
CC(C)CC[C@@]1(C)C[C@@H]2[C@@H]([C@@H](C)C1)N(C(C)C)OC2(C)C (racemic) [Compound 112, rac-(3aR,5R,S,7aR)-5-isopentyl-1-isopropyl-3,3,5,7-tetramethyloctahydrobenzo[c]isoxazole]	50 to 300 nM
CC1CC(C)(c2cccnc2)CC2C1N(C)OC2(C)C (stereo not drawn) [Compound 3, 1,3,3,5,7-pentamethyl-5-(pyridin-3-yl)octahydrobenzo[c]isoxazole]	1000 to 35000 nM
CCC[C@@]1(C)C[C@@H]2[C@@H]([C@@H](C)C1)N(C(C)C)OC2(C)C (racemic) [Compound 61, rac-(3aR,5R,7S,7aR)-1-isopropyl-3,3,5,7-tetramethyl-5-propyloctahydrobenzo[c]isoxazole]	1000 to 35000 nM
CCN1OC(C)(C)[C@@H]2C[C@](C)(c3cc(C#N)ccc3C)C[C@H](C)[C@H]21 (racemic) [Compound 125, rac-3-((3aR,5R,7S,7aR)-1-ethyl-3,3,5,7-tetramethyloctahydrobenzo[c]isoxazol-5-yl)-4-methylbenzonitrile]	< 50 nM

Structure (SMILES)	EC50
CSc1ccc([C@@]2(C)C[C@@H]3[C@@H]([C@@H](C)C2)N(C)OC3(C)C)cc1 (racemic) [Compound 40, rac-(3aR,5R,7S,7aR)-1,3,3,5,7-pentamethyl-5-(4-(methylthio)phenyl)octahydrobenzo[c]isoxazole]	50 to 300 nM
Cc1cc(C#N)ccc1[C@@]1(C)C[C@@H]2[C@@H]([C@@H](C)C1)N(C)OC2(C)C (racemic) [Compound 130, rac-3-methyl-4-((3aR,5R,7S,7aR)-1,3,3,5,7-pentamethyloctahydrobenzo[c]isoxazol-5-yl)benzonitrile]	50 to 300 nM
CC1CC(C)(c2ccccc2C#N)CC2C1N(C)OC2(C)C (stereo not drawn) [Compound 14, 2-(1,3,3,5,7-pentamethyloctahydrobenzo[c]isoxazol-5-yl)benzonitrile]	50 to 300 nM
CCOc1ccccc1[C@@]1(C)C[C@@H]2[C@@H]([C@@H](C)C1)N(C)OC2(C)C (racemic) [Compound 77, rac-(3aR,5R,7S,7aR)-5-(2-ethoxyphenyl)-1,3,3,5,7-pentamethyloctahydrobenzo[c]isoxazole]	300 to 1000 nM
CC[C@@H]1CC[C@@H]2[C@@H](C1)C(C)(C)ON2C(C)C (racemic) [Compound 30, rac-(3aR,5R,7aR)-5-ethyl-1-isopropyl-3,3-dimethyloctahydrobenzo[c]isoxazole]	1000 to 35000 nM
CC(C)c1cccc([C@@]2(C)C[C@@H]3[C@@H]([C@@H](C)C2)N(C)OC3(C)C)c1 (racemic) [Compound 93, rac-(3aR,5R,7S,7aR)-5-(3-isopropylphenyl)-1,3,3,5,7-pentamethyloctahydrobenzo[c]isoxazole]	1000 to 35000 nM
CC(C)N1OC(C)(C)[C@@H]2C[C@](C)(c3ccc(F)cc3)C[C@H](C)[C@H]21 (racemic) [Compound 103, rac-(3aR,5R,7S,7aR)-5-(4-fluorophenyl)-1-isopropyl-3,3,5,7-tetramethyloctahydrobenzo[c]isoxazole]	< 50 nM
C[C@H]1C[C@@](C)(c2ccc(C#N)cc2)C[C@@H]2[C@@H]1N(C)OC2(C)C (racemic) [Compound 131, rac-4-((3aR,5R,7S,7aR)-1,3,3,5,7-pentamethyloctahydrobenzo[c]isoxazol-5-yl)benzonitrile]	50 to 300 nM
Cc1cccc([C@@]2(C)C[C@@H]3[C@@H]([C@@H](C)C2)N(C)OC3(C)C)c1C (racemic) [Compound 69, rac-(3aR,5R,7S,7aR)-5-(2,3-dimethylphenyl)-1,3,3,5,7-pentamethyloctahydrobenzo[c]isoxazole]	50 to 300 nM
C[C@H]1C[C@@](C)(c2cc(F)ccc2F)C[C@@H]2[C@@H]1N(C)OC2(C)C (racemic) [Compound 73, rac-(3aR,5R,7S,7aR)-5-(2,5-difluorophenyl)-1,3,3,5,7-pentamethyloctahydrobenzo[c]isoxazole]	50 to 300 nM
Cc1cc(Cl)ccc1[C@H]1C[C@@H]2[C@@H]([C@@H](C)C1)N(C(C)C)OC2(C)C (racemic) [Compound 98, rac-(3aR,5R,7S,7aR)-5-(4-chloro-2-methylphenyl)-1-isopropyl-3,3,7-trimethyloctahydrobenzo[c]isoxazole]	50 to 300 nM
COC(=O)c1ccc(C)c([C@@]2(C)C[C@@H]3[C@@H]([C@@H](C)C2)N(C)OC3(C)C)c1 (racemic) [Compound 137, rac-methyl 4-methyl-3-((3aR,5R,7S,7aR)-1,3,3,5,7-pentamethyloctahydrobenzo[c]isoxazol-5-yl)benzoate]	50 to 300 nM
CC(C)=CC[C@]1(C)CC[C@@H]2[C@@H](C1)C(C)(C)ON2C (racemic) [Compound 113, rac-(3aR,5S,7aR)-1,3,3,5-tetramethyl-5-(3-methylbut-2-en-1-yl)octahydrobenzo[c]isoxazole]	300 to 1000 nM
CCN1OC(C)(C)[C@@H]2C[C@](C)(CC=C(C)C)C[C@@H](C)[C@H]21 (racemic) [Compound 32, rac-(3aR,5R,7R,7aR)-1-ethyl-3,3,5,7-tetramethyl-5-(3-methylbut-2-en-1-yl)octahydrobenzo[c]isoxazole]	1000 to 35000 nM
COc1ccc(C#N)cc1[C@]1(C)C[C@@H](C)[C@@H]2[C@@H](C1)C(C)(C)ON2C (racemic) [Compound 132, rac-4-methoxy-3-((3aR,5R,7R,7aR)-1,3,3,5,7-pentamethyloctahydrobenzo[c]isoxazol-5-yl)benzonitrile]	300 to 1000 nM
CC1CC(C)C2C(C1)C1(CCCC1)ON2C(C)C (stereo not drawn) [Compound 13, 1-isopropyl-5,7-dimethylhexahydro-1H-spiro[benzo[c]isoxazole-3,1-cyclopentane]]	1000 to 35000 nM
